# Experimental data reported in US20100076015A1, “Aminopyridine Derivatives” (VANTIA LIMITED, priority 2008, published 2010).
# Target: T1, Human KLK1 (Homo sapiens, UniProt P06870)
# T1 construct: purchased Callbiochem (Calbiochem)
# Test: Determination of the IC50 for KLK1 (fluorogenic substrate H-DVal-Leu-Arg-AFC)
# Assay type: biochemical
# Conditions: 37° C.
# Method in brief: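 IC50 values reflect residual human KLK1 activity, read as initial rate from optical absorbance change at 410 nm. Incubations ran at 37° C with H-DVal-Leu-Arg-AFC as substrate across a compound concentration series.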
# T1 sequence (P06870 25-262): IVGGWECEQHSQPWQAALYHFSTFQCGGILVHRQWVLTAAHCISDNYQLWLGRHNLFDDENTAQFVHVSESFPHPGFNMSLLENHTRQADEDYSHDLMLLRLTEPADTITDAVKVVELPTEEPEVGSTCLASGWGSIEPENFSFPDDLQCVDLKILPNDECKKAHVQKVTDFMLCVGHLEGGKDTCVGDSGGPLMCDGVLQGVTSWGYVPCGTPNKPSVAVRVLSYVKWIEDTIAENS
row,SMILES,IC50 [nM]
1,"Cc1cc(C)c(C(=O)N[C@@H](Cc2cccc3ccccc23)C(=O)NCc2ccc(N)nc2C)[nH]1 [Example 278, 3,5-Dimethyl-1H-pyrrole-2-carboxylic acid {(S)-1-[(6-amino-2-methyl-pyridin-3-ylmethyl)-carbamoyl]-2-naphthalen-1-yl-ethyl}-amide]",3.2
2,"CN(C)[C@@H](CO)C(=O)N[C@@H](CC1CCCCC1)C(=O)NCc1ccc(N)nc1 [Example 386, (S)—N-{(S)-1-[(6-Amino-pyridin-3-ylmethyl)-carbamoyl]-2-cyclohexyl-ethyl}-2-dimethylamino-3-hydroxy-propionamide]",260
3,"Cc1nc(N)ccc1CNC(=O)[C@@H](Cc1ccc(Cl)c(Cl)c1)NC(=O)[C@H]1CSCN1 [Example 191, (S)-Thiazolidine-4-carboxylic acid [(R)-1-[(6-amino-2-methyl-pyridin-3-ylmethyl)-carbamoyl]-2-(3,4-dichloro-phenyl)-ethyl]-amide]",33.3
4,"CN1CCC[C@H]1C(=O)N[C@@H](C(=O)NCc1ccc(N)nc1)C(C1CCCCC1)C1CCCCC1 [Example 223, (S)-1-Methyl-pyrrolidine-2-carboxylic acid {(R)-1-[(6-amino-pyridin-3-ylmethyl)-carbamoyl]-2,2-dicyclohexyl-ethyl}-amide]",17.4
5,"Cc1ccc(C[C@H](NC(=O)[C@H]2CCCN2C)C(=O)NCc2ccc(N)nc2)cc1 [Example 106, (R)-1-Methyl-pyrrolidine-2-carboxylic acid {(S)-1-[(6-amino-pyridin-3-ylmethyl)-carbamoyl]-2-p-tolyl-ethyl}-amide]",3.9
6,"Cc1cc(C)c(C(=O)N[C@@H](Cc2c[nH]c3ccccc23)C(=O)NCc2ccc(N)nc2C)[nH]1 [Example 283, 3,5-Dimethyl-1H-pyrrole-2-carboxylic acid [(S)-1-[(6-amino-2-methyl-pyridin-3-ylmethyl)-carbamoyl]-2-(1H-indol-3-yl)-ethyl]-amide]",5.1
7,"COc1ccc2[nH]c(C(=O)N[C@@H](Cc3cccc4ccccc34)C(=O)NCc3ccc(N)nc3C)cc2c1 [Example 304, 5-Methoxy-1H-indole-2-carboxylic acid {(S)-1-[(6-amino-2-methyl-pyridin-3-ylmethyl)-carbamoyl]-2-naphthalen-1-yl-ethyl}-amide]",148
8,"CN1CCC[C@@H]1C(=O)N[C@@H](Cc1ccncc1)C(=O)NCc1ccc(N)nc1 [Example 112, (R)-1-Methyl-pyrrolidine-2-carboxylic acid {(S)-1-[(6-amino-pyridin-3-ylmethyl)-carbamoyl]-2-pyridin-4-yl-ethyl}-amide]",257
9,"Cc1nc(N)ccc1CNC(=O)[C@@H](Cc1ccc(Cl)c(Cl)c1)NC(=O)[C@H]1CCCN1 [Example 189, (R)-Pyrrolidine-2-carboxylic acid [(R)-1-[(6-amino-2-methyl-pyridin-3-ylmethyl)-carbamoyl]-2-(3,4-dichloro-phenyl)-ethyl]-amide]",4.2
10,"Cc1nc(N)ccc1CNC(=O)[C@H](CC1CCCC2CCCCC21)NC(=O)[C@H](N)C(C)C (stereo partly drawn) [Example 186, (R)-2-Amino-N-[(S)-1-[(6-amino-2-methyl-pyridin-3-ylmethyl)-carbamoyl]-2-(decahydro-naphthalen-1-yl)-ethyl]-3-methyl-butyramide]",0.81
11,"Nc1ccc(CNC(=O)[C@H](Cc2ccc(Cl)c(Cl)c2)NC(=O)[C@H](N)c2ccccc2)cn1 [Example 57, (S)-2-((R)-2-Amino-2-phenyl-acetylamino)-N-(6-amino-pyridin-3-ylmethyl)-3-(3,4-dichloro-phenyl)-propionamide]",4.6
12,"CN1CCC[C@@H]1C(=O)N[C@@H](Cc1cccc(Cl)c1)C(=O)NCc1ccc(N)nc1 [Example 103, (R)-1-Methyl-pyrrolidine-2-carboxylic acid [(S)-1-[(6-amino-pyridin-3-ylmethyl)-carbamoyl]-2-(3-chloro-phenyl)-ethyl]-amide]",5.4
13,"CCC(C)[C@H](NC)C(=O)N[C@@H](C(=O)NCc1ccc(N)nc1)C(C1CCCCC1)C1CCCCC1 (stereo partly drawn) [Example 219, (S)-3-Methyl-2-methylamino-pentanoic acid {(R)-1-[(6-amino-pyridin-3-ylmethyl)-carbamoyl]-2,2-dicyclohexyl-ethyl}-amide]",3.6
14,"Cc1nc(N)ccc1CNC(=O)[C@@H](Cc1ccc(Cl)c(Cl)c1)NC(=O)[C@H]1CCCN1C [Example 190, (R)-1-Methyl-pyrrolidine-2-carboxylic acid [(R)-1-[(6-amino-2-methyl-pyridin-3-ylmethyl)-carbamoyl]-2-(3,4-dichloro-phenyl)-ethyl]-amide]",1.8

# Second part, the compound after the results:
row,IC50 [nM],SMILES
1,12.7,"CC(C(=O)N[C@@H](Cc1cccc(Cl)c1)C(=O)NCc1ccc(N)nc1)N1CCCCC1 (stereo partly drawn) [Example 411, N-[(S)-1-[(6-Amino-pyridin-3-ylmethyl)-carbamoyl]-2-(3-chloro-phenyl)-ethyl]-2-piperidin-1-yl-propionamide]"
2,2.6,"CCN(CC)[C@@H](C)C(=O)N[C@@H](Cc1cccc(Cl)c1)C(=O)NCc1ccc(N)nc1 [Example 410, (S)—N-[(S)-1-[(6-Amino-pyridin-3-ylmethyl)-carbamoyl]-2-(3-chloro-phenyl)-ethyl]-2-diethylamino-propionamide]"
3,128,"Nc1ccc(CNC(=O)[C@H](Cc2ccc(F)cc2)NC(=O)CN2CCCCC2)cn1 [Example 379, (S)—N-(6-Amino-pyridin-3-ylmethyl)-3-(4-fluoro-phenyl)-2-(2-piperidin-1-yl-acetylamino)-propionamide]"
4,13.9,"CCN(CC)CC(=O)N[C@@H](Cc1ccc(F)cc1)C(=O)NCc1ccc(N)nc1 [Example 380, (S)—N-(6-Amino-pyridin-3-ylmethyl)-2-(2-diethylamino-acetylamino)-3-(4-fluoro-phenyl)-propionamide]"
5,110,"Cc1cccc(C[C@H](NC(=O)c2cc3ccccc3[nH]2)C(=O)NCc2ccc(N)nc2C)c1 [Example 319, 1H-Indole-2-carboxylic acid {(S)-1-[(6-amino-2-methyl-pyridin-3-ylmethyl)-carbamoyl]-2-m-tolyl-ethyl}-amide]"
6,881,"Nc1ccc(CNC(=O)[C@H](CC2CCCCC2)NC(=O)c2cc3ccccc3[nH]2)cn1 [Example 338, 1H-Indole-2-carboxylic acid {(S)-1-[(6-amino-pyridin-3-ylmethyl)-carbamoyl]-2-cyclohexyl-ethyl}-amide]"
7,0.26,"CCC(C)[C@@H](NC)C(=O)N[C@@H](Cc1csc2ccccc12)C(=O)NCc1ccc(N)nc1 (stereo partly drawn) [Example 51, (R)-3-Methyl-2-methylamino-pentanoic acid {(S)-1-[(6-amino-pyridin-3-ylmethyl)-carbamoyl]-2-benzo[b]thiophen-3-yl-ethyl}-amide]"
8,1.2,"CCC(C)[C@@H](NC)C(=O)N[C@H](Cc1ccc(Cl)c(Cl)c1)C(=O)NCc1ccc(N)nc1C (stereo partly drawn) [Example 188, (2R)-3-Methyl-2-methylamino-pentanoic acid [(R)-1-[(6-amino-2-methyl-pyridin-3-ylmethyl)-carbamoyl]-2-(3,4-dichloro-phenyl)-ethyl]-amide]"
9,1.5,"Cc1cc(C)c(C(=O)N[C@@H](Cc2ccccc2C(F)(F)F)C(=O)NCc2ccc(N)nc2)[nH]1 [Example 240, 3,5-Dimethyl-1H-pyrrole-2-carboxylic acid [(S)-1-[(6-amino-pyridin-3-ylmethyl)-carbamoyl]-2-(2-trifluoromethyl-phenyl)-ethyl]-amide]"
10,30.5,"Cc1cc(C(=O)O)[nH]c1C(=O)N[C@@H](Cc1cccc(C(F)(F)F)c1)C(=O)NCc1ccc(N)nc1 [Example 276, 5-[(S)-1-[(6-Amino-pyridin-3-ylmethyl)-carbamoyl]-2-(3-trifluoromethyl-phenyl)-ethylcarbamoyl]-4-methyl-1H-pyrrole-2-carboxylic acid]"
11,17.3,"Nc1ccc(CNC(=O)[C@H](Cc2ccc(F)c(F)c2)NC(=O)[C@H]2CCCN2CC(=O)O)cn1 [Example 135, {(R)-2-[(S)-1-[(6-Amino-pyridin-3-ylmethyl)-carbamoyl]-2-(3,4-difluoro-phenyl)-ethylcarbamoyl]-pyrrolidin-1-yl}-acetic acid]"
12,1.3,"Cc1cc(C)c(C(=O)N[C@@H](Cc2ccccc2C(F)(F)F)C(=O)NCc2ccc(N)nc2C)[nH]1 [Example 282, 3,5-Dimethyl-1H-pyrrole-2-carboxylic acid [(S)-1-[(6-amino-2-methyl-pyridin-3-ylmethyl)-carbamoyl]-2-(2-trifluoromethyl-phenyl)-ethyl]-amide]"
13,28,"Cc1nc(N)ccc1CNC(=O)[C@H](Cc1ccc(Cl)c(Cl)c1)NC(=O)[C@H](N)C1CCCCC1 [Example 198, (S)-2-((R)-2-Amino-2-cyclohexyl-acetylamino)-N-(6-amino-2-methyl-pyridin-3-ylmethyl)-3-(3,4-dichloro-phenyl)-propionamide]"
14,59.8,"Cc1nc(N)ccc1CNC(=O)[C@H](Cc1ccc(F)c(F)c1)NC(=O)CN1CCCCC1 [Example 430, (S)—N-(6-Amino-2-methyl-pyridin-3-ylmethyl)-3-(3,4-difluoro-phenyl)-2-(2-piperidin-1-yl-acetylamino)-propionamide]"
15,2.2,"CC(C)[C@@H](N)C(=O)N[C@@H](Cc1cccc2ccccc12)C(=O)NCc1ccc(N)nc1 [Example 22, (R)-2-Amino-N-{(S)-1-[(6-amino-pyridin-3-ylmethyl)-carbamoyl]-2-naphthalen-1-yl-ethyl}-3-methyl-butyramide]"
16,2.2,"CN[C@@H](C(=O)N[C@@H](Cc1cccc(Cl)c1)C(=O)NCc1ccc(N)nc1)C(C)C [Example 341, (R)—N-[(S)-1-[(6-Amino-pyridin-3-ylmethyl)-carbamoyl]-2-(3-chloro-phenyl)-ethyl]-3-methyl-2-methylamino-butyramide]"
17,0.77,"Cc1cccc(C[C@H](NC(=O)[C@H](C)N(C)C(C)C)C(=O)NCc2ccc(N)nc2)c1 [Example 414, (S)—N-{(S)-1-[(6-Amino-pyridin-3-ylmethyl)-carbamoyl]-2-m-tolyl-ethyl}-2-(isopropyl-methyl-amino)-propionamide]"
